Test results taken from patent US20030144335A1, “Preventive or remedial agent for allergic disease and medical water-based liquid preparation, eye drop, and nasal drop” (priority 2001, published 2003).

System: experimental allergic conjunctivitis model
Assay: Experimental allergic conjunctivitis model (dye leakage in palpebral conjunctiva of passively sensitized guinea pigs)
Format: in vivo, guinea pig
Conditions: at each concentration (0.01%, 0.1%, 1%); dose relationship confirmed
Description: In the test, Hartley male guinea pigs (each group consisting of 8 guinea pigs) at age 6 weeks were used.
Antiserum made by the following method was used: According to the method of Levine et al (J.Immunol.,106,29-33(1971)), the guinea pigs were sensitized with 4 times-administration of physiological saline 1 ml containing 10 μg of ovalbumin (hereafter called “OA”) and 5 mg of aluminum hydroxide via the peritoneal cavity at intervals of 2 weeks. 1 week after the final sensitization, blood was sampled from the hind leg, and left at room temperature for 30 minutes. The blood was then left at 4° C. for 4-5 hours, and serum was then collected by centrifugation at 1680×9.8 m/s^2 g for 15 minutes. The serum obtained was frozen and stored at −80° C.
20 μl/site of Anti OA guinea pig serum (64 antibody titer in PCA (passive cutaneous anaphylaxis reaction)) was diluted with an equal amount of physiological saline. 20 μl/site of the solution was injected intradermally in binocular palpebral conjunctiva of the guinea pig under ether anesthesia. Thus, passive sensitization was carried out. […]
Then, 8 ml of 0.6 mol/ml of liquid mixture of phosphoric acid and acetone(5 to 13) was added and shaken; thereafter, the mixture was stirred using a homogenizer, and centrifuged at 1680×9.8/s^2 for 15 minutes. The leakage pigment quantity was colorimetered at 620 nm using a spectrophotometer. […]

CCS(=O)(=O)CCn1c([N+](=O)[O-])cnc1C [tinidazole, 1-(2-ethylsulfonyl)ethyl-2-methyl-5-nitro-1H-imidazole]
inhibitory effect on dye leakage (allergic conjunctivitis): significant inhibitory effect
